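Protocol summary: plate cells (96-well), add compound at 5 concentrations, incubate 48 h, interpolate endpoints linearly. GI50 marks 50% less growth.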 Activity calls are given as the source filed them. Cut-off read from the data, not from the text of the source: active = GI50 up to about 1.1 µM and inactive = higher.
How the values were obtained:
Experiment in all cases: inhibition of tumour cell growth, NCI panel, 48 h
786-0 = system: 786-0
A498 = system: A498
HCT-116 = system: HCT-116
HOP-92 = system: HOP-92
HT-29 = system: HT-29
IGROV-1 = system: IGROV-1
MOLT-4 = system: MOLT-4
OVCAR-3 = system: OVCAR-3
OVCAR-5 = system: OVCAR-5
RXF 393 = system: RXF 393
SF-539 = system: SF-539
TK-10 = system: TK-10
U-251 = system: U-251
UO-31 = system: UO-31
HCT-15 = system: HCT-15
MDA-N = system: MDA-N
SN12C = system: SN12C
BT-549 = system: BT-549
SR = system: SR

Compound	GI50 (786-0)	GI50 (A498)	GI50 (HCT-116)	GI50 (HOP-92)	GI50 (HT-29)	GI50 (IGROV-1)	GI50 (MOLT-4)	GI50 (OVCAR-3)	GI50 (OVCAR-5)	GI50 (RXF 393)	GI50 (SF-539)	GI50 (TK-10)	GI50 (U-251)	GI50 (UO-31)	GI50 (HCT-15)	GI50 (MDA-N)	GI50 (SN12C)	GI50 (BT-549)	GI50 (SR)
C/C(CC(=O)Nc1ccc(C)c(C)c1)=N\NC(N)=O	> 100 µM (inactive)	> 100 µM (inactive)	> 100 µM (inactive)	> 100 µM (inactive)	> 100 µM (inactive)	> 100 µM (inactive)	> 100 µM (inactive)	> 100 µM (inactive)	> 100 µM (inactive)	> 100 µM (inactive)	> 100 µM (inactive)	> 100 µM (inactive)	> 100 µM (inactive)	> 100 µM (inactive)	–	–	–	–	–
CCOC(=O)c1nc(SC)sc1NC(=O)c1ccc(OC)cc1	20.5 µM (inactive)	15.8 µM (inactive)	19.5 µM (inactive)	> 100 µM (inactive)	66.2 µM (inactive)	> 100 µM (inactive)	> 100 µM (inactive)	> 100 µM (inactive)	> 100 µM (inactive)	33.4 µM (inactive)	16.4 µM (inactive)	21.1 µM (inactive)	23.9 µM (inactive)	> 100 µM (inactive)	> 100 µM	> 100 µM (inactive)	37.9 µM (inactive)	–	–
COc1cccc(-c2c(-c3ccccc3)[nH]c(C)c2C(=O)ONC(=O)c2ccccc2)c1	4.44 µM (inactive)	15 µM (inactive)	3.98 µM (inactive)	1.83 µM (inactive)	10 µM (inactive)	1.66 µM (inactive)	4.24 µM (inactive)	6.38 µM (inactive)	9.06 µM (inactive)	4.35 µM (inactive)	6.76 µM (inactive)	9.08 µM (inactive)	3.14 µM (inactive)	0.128 µM (active)	12.1 µM	–	3.4 µM (inactive)	5.41 µM (inactive)	2.07 µM (inactive)
N#Cc1[nH]c(=O)n(-c2ccccc2)c1N	> 10 µM (inactive)	> 10 µM (inactive)	> 10 µM (inactive)	–	> 10 µM (inactive)	> 10 µM (inactive)	> 10 µM (inactive)	> 10 µM (inactive)	0.141 µM (active)	> 10 µM (inactive)	> 10 µM (inactive)	> 10 µM (inactive)	> 10 µM (inactive)	> 10 µM (inactive)	> 10 µM	> 10 µM (inactive)	> 10 µM (inactive)	–	> 10 µM (inactive)
O=C1OCC2OC(=O)c3cc(O)c(O)c(O)c3-c3c(O)c(O)c(O)c4c3C(=O)OC(C2OC(=O)c2cc(O)c(O)c(O)c2-c2c1cc(O)c(O)c2O)C1OC(=O)C2C4=C(O)C(=O)C23Oc2cc(O)c4c(c2[C@H]13)O[C@H](c1ccc(O)c(O)c1)[C@@H](O)C4 (stereo partly specified)	21.4 µM (inactive)	> 100 µM (inactive)	17.3 µM (inactive)	25.9 µM (inactive)	16.2 µM (inactive)	26.4 µM (inactive)	22.6 µM (inactive)	30.1 µM (inactive)	14.6 µM (inactive)	16.8 µM (inactive)	–	–	16.6 µM (inactive)	17.8 µM (inactive)	18.4 µM	–	18 µM (inactive)	19.3 µM (inactive)	27.5 µM (inactive)
CC1CC/C(=C\c2ccc(F)cc2)C2=C1C(c1ccc(F)cc1)n1c(s/c(=C/c3cccc(Br)c3)c1=O)=N2 (stereo unspecified)	> 100 µM (inactive)	> 100 µM (inactive)	> 100 µM (inactive)	> 100 µM (inactive)	> 100 µM (inactive)	> 100 µM (inactive)	> 100 µM (inactive)	–	> 100 µM (inactive)	> 100 µM (inactive)	–	> 100 µM (inactive)	> 100 µM (inactive)	–	> 100 µM	> 100 µM (inactive)	> 100 µM (inactive)	–	> 100 µM (inactive)
Nc1cc(C2CCCc3c2[nH]c2ccccc32)ccc1O (stereo unspecified)	15.3 µM (inactive)	> 100 µM (inactive)	20.3 µM (inactive)	56.8 µM (inactive)	23.4 µM (inactive)	38.2 µM (inactive)	4.79 µM (inactive)	22.3 µM (inactive)	24.1 µM (inactive)	55.8 µM (inactive)	> 100 µM (inactive)	> 100 µM (inactive)	48.2 µM (inactive)	10.5 µM (inactive)	55.3 µM	–	65.2 µM (inactive)	35.2 µM (inactive)	4.48 µM (inactive)
COc1ccc(C[C@H]2COC(=O)[C@@H]2Cc2ccccc2)cc1OC	> 100 µM (inactive)	> 100 µM (inactive)	> 100 µM (inactive)	–	> 100 µM (inactive)	> 100 µM (inactive)	> 100 µM (inactive)	> 100 µM (inactive)	> 100 µM (inactive)	–	–	> 100 µM (inactive)	> 100 µM (inactive)	–	–	> 100 µM (inactive)	> 100 µM (inactive)	–	> 100 µM (inactive)
CCOC(OCC)C(CCc1ccccc1)c1c(N)nc(N)[nH]c1=O (stereo unspecified)	89.7 µM (inactive)	> 100 µM (inactive)	65.3 µM (inactive)	29.6 µM (inactive)	55.1 µM (inactive)	37.1 µM (inactive)	34.3 µM (inactive)	62.4 µM (inactive)	13.5 µM (inactive)	57.7 µM (inactive)	> 100 µM (inactive)	66.2 µM (inactive)	81.1 µM (inactive)	34.8 µM (inactive)	68.7 µM	–	56.8 µM (inactive)	86.9 µM (inactive)	32.4 µM (inactive)
CC(=O)Nc1oc(C)c(C)c1S(=O)(=O)c1ccc(Cl)cc1	98.9 µM (inactive)	> 100 µM (inactive)	55 µM (inactive)	> 100 µM (inactive)	49 µM (inactive)	70 µM (inactive)	39.4 µM (inactive)	27.5 µM (inactive)	> 100 µM (inactive)	69.7 µM (inactive)	26.7 µM (inactive)	60.5 µM (inactive)	92 µM (inactive)	39 µM (inactive)	41.8 µM	–	–	29.2 µM (inactive)	51.5 µM (inactive)
COc1ccc(OC)c2sc(N3C(=O)/C(=C/c4cccc(Oc5ccccc5)c4)N=C3c3ccccc3)nc12	> 100 µM (inactive)	> 100 µM (inactive)	85.1 µM (inactive)	> 100 µM (inactive)	> 100 µM (inactive)	> 100 µM (inactive)	31.9 µM (inactive)	> 100 µM (inactive)	> 100 µM (inactive)	> 100 µM (inactive)	–	> 100 µM (inactive)	92 µM (inactive)	> 100 µM (inactive)	87.9 µM	38 µM (inactive)	> 100 µM (inactive)	> 100 µM (inactive)	–
O=[N+]([O-])c1ccc(-c2nn3c(C45CC6CC(CC(C6)C4)C5)nnc3s2)c(Cl)c1	> 100 µM (inactive)	> 100 µM (inactive)	> 100 µM (inactive)	> 100 µM (inactive)	> 100 µM (inactive)	> 100 µM (inactive)	> 100 µM (inactive)	> 100 µM (inactive)	> 100 µM (inactive)	> 100 µM (inactive)	> 100 µM (inactive)	> 100 µM (inactive)	> 100 µM (inactive)	> 100 µM (inactive)	> 100 µM	> 100 µM (inactive)	> 100 µM (inactive)	–	> 100 µM (inactive)
CCOC(=O)C12CCSC1C1(C#N)C(C#N)=CC2(N=P(c2ccccc2)(c2ccccc2)c2ccccc2)n2c(=O)n(-c3ccccc3)c(=O)n21 (stereo unspecified)	47.8 µM (inactive)	51.5 µM (inactive)	36.9 µM (inactive)	12.4 µM (inactive)	39.8 µM (inactive)	59.8 µM (inactive)	30.3 µM (inactive)	25.4 µM (inactive)	> 100 µM (inactive)	> 100 µM (inactive)	73.6 µM (inactive)	> 100 µM (inactive)	42.4 µM (inactive)	24.2 µM (inactive)	34.8 µM	–	62.2 µM (inactive)	–	–
O=C1N/C(=N/N=C/C(O)C(O)C(O)C(O)CO)N/C1=C\c1c[nH]c2ccccc12 (stereo unspecified)	> 100 µM (inactive)	38.3 µM (inactive)	> 100 µM (inactive)	> 100 µM (inactive)	57.7 µM (inactive)	> 100 µM (inactive)	93.8 µM (inactive)	62.8 µM (inactive)	> 100 µM (inactive)	> 100 µM (inactive)	> 100 µM (inactive)	> 100 µM (inactive)	69.3 µM (inactive)	–	> 100 µM	> 100 µM (inactive)	> 100 µM (inactive)	> 100 µM (inactive)	–
Cn1c(=O)c2nc(CCCCC(=O)O)[nH]c2n(C)c1=O	> 100 µM (inactive)	> 100 µM (inactive)	> 100 µM (inactive)	> 100 µM (inactive)	> 100 µM (inactive)	61.7 µM (inactive)	> 100 µM (inactive)	> 100 µM (inactive)	> 100 µM (inactive)	> 100 µM (inactive)	–	> 100 µM (inactive)	> 100 µM (inactive)	> 100 µM (inactive)	> 100 µM	> 100 µM (inactive)	> 100 µM (inactive)	> 100 µM (inactive)	–
Cc1ccc(S(=O)(=O)CC2(Br)CCc3ccccc3C2=O)cc1 (stereo unspecified)	42.9 µM (inactive)	25.8 µM (inactive)	47.1 µM (inactive)	34.4 µM (inactive)	20.8 µM (inactive)	17.5 µM (inactive)	2.86 µM (inactive)	45.3 µM (inactive)	51.1 µM (inactive)	18.1 µM (inactive)	33.7 µM (inactive)	33 µM (inactive)	21.4 µM (inactive)	14.8 µM (inactive)	19.8 µM	–	30.6 µM (inactive)	18.3 µM (inactive)	1.38 µM (inactive)

— ChEMBL document CHEMBL1201862, “PubChem BioAssay data set” (2004)
